Target: Dihydrofolate reductase (Lactobacillus casei) (UniProt P00381)
Conditions: Lacticaseibacillus casei
Description: Inhibitory activity against Lactobacillus casei dihydrofolate reductase (DHFR)

Sequence of Dihydrofolate reductase (Lactobacillus casei) (P00381 whole entry): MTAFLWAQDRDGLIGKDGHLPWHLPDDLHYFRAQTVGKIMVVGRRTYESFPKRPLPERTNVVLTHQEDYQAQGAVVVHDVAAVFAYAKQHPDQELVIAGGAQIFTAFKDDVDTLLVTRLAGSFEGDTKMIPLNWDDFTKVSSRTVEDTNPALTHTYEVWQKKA

First: Cc1cccc(N2C(N)=NC(N)=NC2(C)C)c1
Second: CC1(C)N=C(N)N=C(N)N1c1cccc(I)c1
The log 1/Ki app of the first is lower: 3.07 for the first, 3.73 for the second.

CC1(C)N=C(N)N=C(N)N1c1cccc(S(=O)(=O)F)c1 and CC1(C)N=C(N)N=C(N)N1c1cccc(F)c1 are within 0.2 log units of each other in log 1/Ki app: 3.21 for the first, 3.29 for the second.

First: CC1(C)N=C(N)N=C(N)N1c1cccc(OCCCCOc2cccc(C(F)(F)F)c2)c1
Second: CC1(C)N=C(N)N=C(N)N1c1cccc(OCCOc2cccc(C(F)(F)F)c2)c1
The log 1/Ki app of the first is higher: 4.79 for the first, 4.1 for the second.

CC1(C)N=C(N)N=C(N)N1c1cccc(COc2cccc(NC(N)=O)c2)c1 and CC(=O)Nc1cccc(OCc2cccc(N3C(N)=NC(N)=NC3(C)C)c2)c1 are within 0.2 log units of each other in log 1/Ki app: 5.36 for the first, 5.45 for the second.

CC1(C)N=C(N)N=C(N)N1c1cccc(COc2cccc(C#N)c2)c1 and Cc1cccc(OCc2cccc(N3C(N)=NC(N)=NC3(C)C)c2)c1 are within 0.2 log units of each other in log 1/Ki app: 5.31 for the first, 5.33 for the second.

CCCCCCCCCOc1cccc(N2C(N)=NC(N)=NC2(C)C)c1 and CCCCCCCCCCCOc1cccc(N2C(N)=NC(N)=NC2(C)C)c1 are within 0.2 log units of each other in log 1/Ki app: 4.71 for the first, 4.54 for the second.

COc1cccc(OCc2cccc(N3C(N)=NC(N)=NC3(C)C)c2)c1 and CC1(C)N=C(N)N=C(N)N1c1cccc(COc2cccc(Cl)c2)c1 are within 0.2 log units of each other in log 1/Ki app: 5.56 for the first, 5.41 for the second.

First: CC1(C)N=C(N)N=C(N)N1c1cccc(OCc2ccc(Cl)c(Cl)c2)c1
Second: CC1(C)N=C(N)N=C(N)N1c1cccc(OCc2ccccc2)c1
The log 1/Ki app of the first is higher: 4.41 for the first, 4.2 for the second.

Going from CC1(C)N=C(N)N=C(N)N1c1cccc(CNc2cc(C(N)=O)cc(C(N)=O)c2)c1 to CC1(C)N=C(N)N=C(N)N1c1cccc(COc2cccc(NC(=N)S)c2)c1, the log 1/Ki app falls from 4.74 to 4.36.

Compared with CC1(C)N=C(N)N=C(N)N1c1cccc(OCCOc2ccccc2)c1, CC1(C)N=C(N)N=C(N)N1c1cccc(OCCCCOc2ccccc2)c1 is higher in log 1/Ki app: 3.74 for the first, 4.79 for the second.

First: CC(=O)c1cccc(N2C(N)=NC(N)=NC2(C)C)c1
Second: CCOC(=O)c1cccc(N2C(N)=NC(N)=NC2(C)C)c1
The log 1/Ki app of the first is lower: 2.87 for the first, 3.21 for the second.

Going from CCCCOc1cccc(N2C(N)=NC(N)=NC2(C)C)c1 to CCCCCCCCCCCCOc1cccc(N2C(N)=NC(N)=NC2(C)C)c1, the log 1/Ki app rises from 4.2 to 4.63.

CC1(C)N=C(N)N=C(N)N1c1cccc(COc2ccccc2)c1 and CCc1cccc(OCc2cccc(N3C(N)=NC(N)=NC3(C)C)c2)c1 are within 0.2 log units of each other in log 1/Ki app: 5.44 for the first, 5.31 for the second.

Going from CCCCCCCCCCCCCCOc1cccc(N2C(N)=NC(N)=NC2(C)C)c1 to CCCCCCCCCCCCCOc1cccc(N2C(N)=NC(N)=NC2(C)C)c1, the log 1/Ki app rises from 4.5 to 4.81.

CC1(C)N=C(N)N=C(N)N1c1cccc(Br)c1 and CC1(C)N=C(N)N=C(N)N1c1cccc([N+](=O)[O-])c1 are within 0.2 log units of each other in log 1/Ki app: 3.69 for the first, 3.56 for the second.

First: CCCCCCc1cccc(N2C(N)=NC(N)=NC2(C)C)c1
Second: CC(C)(C)c1cccc(N2C(N)=NC(N)=NC2(C)C)c1
The log 1/Ki app of the first is higher: 4.96 for the first, 3.2 for the second.

CC(C)c1cccc(OCc2cccc(N3C(N)=NC(N)=NC3(C)C)c2)c1 and CC(C)(C)c1cccc(OCc2cccc(N3C(N)=NC(N)=NC3(C)C)c2)c1 are within 0.2 log units of each other in log 1/Ki app: 5.41 for the first, 5.44 for the second.

CC1(C)N=C(N)N=C(N)N1c1cccc(COc2cccc(CO)c2)c1 gave a log 1/Ki app of 5.45.

From ChEMBL document CHEMBL1121755, “Comparison of the inhibition of methotrexate-sensitive and -resistant Lactobacillus casei cell cultures with purified Lactobacillus casei dihydrofolate reductase by 4,6-diamino-1,2-dihydro-2,2-dimethyl-1-(3-substituted-phenyl)-s-triazines. Use of quantitative structure-activity relationships in …” (1981)
